We go through 2 substances from patent US8507448B2, “Human CD154-binding synthetic peptide and uses thereof” (Fresenius Medical Care Deutschland G.m.b.H., priority 2007, dated 2013).

Data set [1] concerns the target T1, active site of human CD154 (Homo sapiens, UniProt P29965).
T1 construct: expressed in transfected cells; host or cells: J558L murine myeloma cell line transfected with human CD154
T1 sequence (P29965 1-261): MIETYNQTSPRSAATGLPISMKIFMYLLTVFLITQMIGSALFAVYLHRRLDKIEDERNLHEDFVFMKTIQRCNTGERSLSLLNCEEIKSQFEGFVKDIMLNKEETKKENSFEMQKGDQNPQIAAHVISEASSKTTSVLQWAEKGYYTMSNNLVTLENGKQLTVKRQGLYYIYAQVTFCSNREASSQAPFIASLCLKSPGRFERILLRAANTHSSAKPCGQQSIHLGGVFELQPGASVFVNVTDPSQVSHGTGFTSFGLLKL
The experiment in a line: Competition with anti-human CD154 fluorescein-conjugated antibody on J558L cells. To be noted: -His6 peptides 30 minutes at room temperature, then antibody. The data set is classed as binding. The protocol: The murine myeloma cells transfected with human CD154, J558L, were incubated with each of the seven anti-CD154 peptides tagged with a 6 histidines tail (-His6), and then with the anti-CD154 fluorescein-conjugated antibody. The ability of the peptides to compete with the anti-CD154 antibody for the binding to the CD154 molecule expressed on the surface of the J558L cells was evaluated by flow cytometry, as the reduction in the fluorescence intensity compared to the positive control represented by cells incubated with the anti-human CD154 fluorescein-conjugated antibody alone. […] The amino acid sequence of the control peptide differs from that of peptide 4.10 in that an arginine residue is replaced with an alanine residue at amino acid position 5.
(§1) The peptides were synthesized and conjugated with biotin (-bio) or with a 6-histidine tail (-his6) so as to enable in vitro and in vivo localization. […] Furthermore, a competition assay between the peptides and an anti-human CD154 fluorescein-conjugated antibody (Serotec) specifically recognizing the active site of CD154 was carried out. The J558L cells were incubated with the his6-peptides for 30 minutes at room temperature and then with anti-human CD154 fluorescein-conjugated antibody for another 30 minutes at room temperature. […] In order to identify the amino acid residues of the amino acid sequence of peptide 4.10 which are essential to the binding to CD154, three different peptides were synthesized, each one carrying a point mutation, which amino acid sequences differ from that of peptide 4.10 by replacement of the amino acid residues at positions 4, 5, 6, respectively, with one alanine residue.

The subject of data set [2] is HUVEC. The experiment in a line: In vitro angiogenesis: cell cord formation of HUVECs on Matrigel. The data set is classed as cell-based, human. The conditions noted are these: pre-incubated with rhsCD154 100 ng/ml for 15 minutes at 37° C.; 4 hours. The text has this: FIGS. 7B-F show representative images of cell cord formation ability on Matrigel under the various experimental conditions mentioned above (B=unstimulated control; C=rhsCD154; D=rhsCD154+ 4.10 peptide; E=rhsCD154+ 4.10-ala peptide; F=rhsCD154+ blocking anti-CD154 antibody). Peptide 4.10 of the invention (SEQ ID NO: 6), contrary to control peptide 4.10-ala (SEQ ID NO: 8), inhibits the rhsCD154-induced ability of the endothelial cells of forming cell cords.
(§2) Furthermore, in order to evaluate the inhibitory effect, rhsCD154 (100 ng/ml) was pre-incubated for 15 minutes at 37° C. with peptide 4.10 (SEQ. ID NO: 6), or with control peptide 4.10-ala (SEQ. ID NO: 8), or with a blocking anti-human CD154 antibody. The flasks were then observed at 10× magnification for a period of 4 hours under a phase contrast inverted microscope equipped with a thermostatic chamber (at about 37° C.). The cells were photographed with a camera connected to the microscope, over the whole length of time of 4 hours at regular intervals of 15 minutes each. The migratory speed of each of the cells was calculated based on the position of the nucleus of each single cell in each single frame, using an image analysis software and, as a result, the average cell migratory speed (1 standard deviation) was calculated for each experimental condition. […] As a further confirmation of the ability of peptide 4.10 to prevent human endothelial CD40 stimulation by rhsCD154 (100 ng/ml), HUVECs (3.5×10^4) were subjected to an in vitro angiogenesis assay. HUVECs were plated on a tumor matrix (Matrigel, BD) capable of promoting the formation of super cellular organization, in a basal RPMI medium supplemented with 5% serum. Upon incubation at 37° C. under 5% CO2 for 4 hours, the cells were observed under a contrast phase inverted microscope.

The subject of data set [3] is CD40 stimulation of peripheral B cells by rhsCD154. The data set is described as follows: rhsCD154-induced B cell activation (CD80 and CD86 membrane expression). The data set is classed as cell-based, human. The protocol: The histograms of 4A show the effect of the anti-CD154 peptides and the control peptide 4.10-ala, on the activation B cells induced by stimulation with a soluble recombinant human CD154 molecule (rhsCD154). B cells were stimulated for 48 hours with rhsCD154 in the absence and in the presence of a blocking anti-human CD154 antibody or one of the seven selected peptides. Peripheral B cell activation was evaluated by flow cytometry, as the membrane expression of the co-stimulatory molecules CD80 and CD86. […] On the contrary, the activation is prevented when rhsCD154 is used in combination with a blocking anti-human CD154 antibody or with peptide 4.10 (SEQ ID NO: 6).
B cells are known to constitutively express the CD40 molecule on the cells membrane (van Kooten C. et al, J. Leukoc. Biol. 2000). Stimulation of CD40 by CD154-expressing activated T cells, results in B cells activation, proliferation and isotype switching. The inventors employed B cells isolated from whole peripheral blood of healthy donors by gradient-Ficoll centrifugation and immunomagnetical separation (MACS systems—Milteniy). The quiescent B cells thereby obtained, were then stimulated with a soluble form of human recombinant CD154 (rhsCD154) to induce activation and expression of the co-stimulatory molecules CD80 (B7-1) and CD86 (B7-2) on the cell membrane. A drastic increase in membrane expression of CD80 and CD86 on the cell surface of peripheral B cells, after stimulation for 48 hours with rhsCD154 (100 ng/ml) was observed. […] In contrast, pre-incubation for 15 minutes at 37° C. of rhsCD154 (100 ng/ml) with peptide 4.10 (SEQ. ID NO: 6), prior to lymphocyte stimulation, blocked B cells stimulation and the related expression of CD80 and CD86. […] The results are the mean±standard deviation of five different experiments. Similar results were also obtained with B cells isolated from human spleen fragments. […] These experiments were carried out on […] naive B cells, obtained from peripheral blood by negative selection, by depletion of mature lymphocytes from the B cell pool by immunomagnetic separation (MACS Systems Milteniy).

Data set [4] concerns the target T2, human CD154 expressed on the surface of J558L cells (Homo sapiens, UniProt P29965).
T2 construct: expressed in transfected cells; host or cells: J558L murine myeloma cell line transfected with human CD154
T2 sequence (P29965 1-261): T1 sequence (P29965 1-261)
The experiment in a line: Binding of -His6-tagged peptides to J558L CD154+ cells by flow cytometry. To be noted: -His6 peptides 60 μM, 30 minutes at room temperature. How it is done: FIG. 2 represents the binding of the seven peptides obtained from the human CD154-binding clones and tagged with a 6 histidines tail (-His6) to the J558L CD154^+ cells. […] The cells were incubated with each of the -His6-tagged peptides and then with a phycoerythrin-conjugated secondary antibody specific for the -His6 tail. The dotted histogram is the isotopic control, whilst the black line is the binding intensity of the CD154-specific peptides [4.2=4.3=CPSGHTKAC (SEQ ID NO: 1), 4.4=CGTHSSRIC (SEQ ID NO: 2), 4.6=CLGTQNKEC (SEQ ID NO: 3), 4.7=4.12=CTPGKPHSC (SEQ ID NO: 4), 4.8=CKAASANIC (SEQ ID NO: 5), 4.10=CLPTRHMAC (SEQ ID NO: 6) and 4.11=CLSAVHNMC (SEQ ID NO: 7)]. For each experimental condition, 10,000 events were analyzed and the values are the mean and standard deviation of 3 different experiments.
as §1
The mutated peptides were not capable of recognizing human CD154 expressed at the surface of J558L cells (data not shown).
Similar results were obtained with the four modified peptides 4.101, 4.102, 4.103 e 4.104 having the amino acid sequences illustrated in table II.
For orientation: A flow cytometer gives signals particle by particle.

The test system of data set [5] is HUVEC. The experiment in a line: rhsCD154-induced HUVEC motility (time-lapse migration). The data set is classed as cell-based, human. The protocol:
Peptide 4.10 (SEQ ID NO: 6), contrary to control peptide 4.10-ala (SEQ ID NO: 8), inhibits the rhsCD154-induced motility of endothelial cells.
It is known that an inflammatory process, once triggered, can be preserved by cells outside the immune system expressing particular receptors or lymphocyte co-stimulatory molecules, such as CD40 and its ligand CD154, such as e.g. endothelial cells from the vascular wall. […] In particular, the cell migration experiments were carried out with HUVEC cells plated on gelatin at a density of 4×10^3 in complete endothelial cell medium in the presence of 20% serum. The following day, the endothelial medium was replaced with low glucose DMEM (Sigma) with a reduced serum concentration (5%), in the presence or absence of rhsCD154 (100 ng/ml).
as §2, with “Upon incubation at 37° C. under 5% CO2 for 4 hours, the cells were observed under a contrast phase inverted microscope.” left out

In another data set the test system is human platelets. The experiment in a line: Platelet aggregation assay (aggregometer). The class given is cell-based. To be noted: priming 10 minutes at 37° C.; peptide 60 μM with CD154. The protocol: Platelet aggregation was measured with an aggregometer, as the increase in light transmission compared to the control. Priming of human platelets with the anti-human CD154 antibody in combination with rhsCD154 increases platelet aggregation upon stimulation with ADP 0.5 μM.
Finally, one of the major advantages of peptide 4.10 is its lack of reactivity towards human platelets. It is know that in the past, a number of clinical trials carried out to test promising anti-CD154 monoclonal antibodies were suddenly discontinued due to dramatic prothrombotic side effects (Kelsoe G. et al, J. Clin. Invest. 2003). The hypothesis is that the anti-CD154 antibodies had triggered a cross-reaction on the surface of human platelets expressing the receptor for the Fc immunoglobulin fraction (FcR) and, after activation, the CD154 molecule. Thus, the inventors tested the effect of peptide 4.10 on platelets, by a platelet aggregation assay. Such experiments were carried out by the use of a thermostatic aggregometer, equipped with a magnetic stirrer and a real time optical density meter. Platelet aggregation was evaluated as the change in optical density versus the reference sample (blank). The experiments were carried out on platelets extracted from peripheral whole blood of healthy donors collected in tubes containing 5 U/ml heparin. In particular, the platelet enriched plasma (PRP), was obtained by whole blood centrifugation at 900 rpm for 20 minutes, while the platelet poor plasma (PPP), used as the reference sample, was obtained collecting the supernatant after another centrifugation at 3000 rpm for 10 minutes. […] Similar results were obtained inducing platelet aggregation with 0.3 U/ml thrombin.

The subject of a further data set is naive B cells. The experiment in a line: Isotype switching of naive B cells induced by IL-4 and rhsCD154. To be noted: IL-4 0.4 ng/ml and rhsCD154 100 ng/ml, 96 hours, no inhibitor. The data set is classed as cell-based, human. How it is done: The graphics of FIG. 5A show the percentage of naive B cells undergoing isotype switching and expressing IgG, under basal condition with no stimulation, after stimulation for 72 hours with IL4 and CD154, […] anti-human CD154 antibody, […] 4.10 (SEQ ID NO: 6), respectively. Peptide 4.10 (SEQ ID NO: 6), just as the anti-CD154 antibody, is capable of strongly inhibiting the isotype switching of immunoglobulins induced by stimulation with rhsCD154 and IL4.
B cells are known to constitutively express the CD40 molecule on the cells membrane (van Kooten C. et al, J. Leukoc. Biol. 2000). Stimulation of CD40 by CD154-expressing activated T cells, results in B cells activation, proliferation and isotype switching. The inventors employed B cells isolated from whole peripheral blood of healthy donors by gradient-Ficoll centrifugation and immunomagnetical separation (MACS systems—Milteniy). The quiescent B cells thereby obtained, were then stimulated with a soluble form of human recombinant CD154 (rhsCD154) to induce activation and expression of the co-stimulatory molecules CD80 (B7-1) and CD86 (B7-2) on the cell membrane. A drastic increase in membrane expression of CD80 and CD86 on the cell surface of peripheral B cells, after stimulation for 48 hours with rhsCD154 (100 ng/ml) was observed. […]

The mark [6] stands for this setting: rhsCD154 100 ng/ml alone, 48 hours.

Regarding “CLPTAHMAC (binding protein) [peptide 4.10-ala, control peptide; arginine at position 5 of peptide 4.10 replaced with alanine, reference compound]”, in data set [1], the “competition with anti-human CD154 fluorescein-conjugated antibody specific for the active site of CD154” value was “complete inactivation of the peptide's ability to compete”. Moreover, the “effect on rhsCD154-induced formation of vessel-like cell cords on Matrigel” value in the data set on HUVEC [2] is reported as “did not affect the ability of the cells to form vessel-like cell cords”. Moreover, the “inhibition of rhsCD154-induced B cell activation (CD80 and CD86 expression)” value in data set [3] (250 μM) is “neither affected the expression of CD80 and CD86”. Also, in data set [4], the “binding to J558L CD154+ cells” value was “least reactive”. Besides, in the data set on HUVEC [5] (pre-incubated with rhsCD154 100 ng/ml for 15 minutes at 37° C.), the “effect on rhsCD154-induced motility of HUVEC” value is reported as “did not affect endothelial CD40 stimulation”.

For “rhsCD154: recombinant soluble form of human CD154, used as the CD40 stimulus [reference compound]”, the “platelet aggregation induced by ADP 0.5 μM after priming” value in the data set on human platelets is recorded as “did not enhance platelet aggregation”. Moreover, in data set [3] (setting [6]), the “increase in membrane expression of CD80 compared to basal levels” value is given as 300% and the “increase in membrane expression of CD86 compared to basal levels” value came out at 274%. For the same substance, the “increase in the basal motility of cells” value with HUVEC [5] (rhsCD154 100 ng/ml alone) was “about 350%”. Also, the cell migratory speed in the data set with HUVEC [5] (rhsCD154 100 ng/ml alone, basal lower than 12 μm/h) turned out to be 42 μm/h. Also, in the data set with naive B cells, the “increase in the number of B cells expressing membrane IgG” value amounted to 25%.
